# Test system: lymphoblastoid cell lines
# Assay: Cyclic AMP accumulation in lymphoblastoid cell lines in response to another GPCR agonist (specificity control)
# Assay type: cell-based, human
# Conditions: PGE2 1 μM + forskolin 10 μM, IBMX 200 μM pre-incubation, 10 min, fold-change over forskolin/IBMX alone
# Description: Reactions were terminated by pelleting the cells, aspiration of the medium and addition of 100 μl of cold 7.5% (wt/vol) trichloroacetic acid (TCA). Cyclic AMP content in TCA extracts was determined by radioimmunoassay and normalized to the number of cells per well. […] Results presented for each subject represents the mean and standard error of at least ten replicates. Standard error and P-values for pooled results were computed across individuals (FIG. 3).
compound,measurement,setting,value
CCCCC[C@H](O)/C=C/[C@H]1[C@H](O)CC(=O)[C@@H]1C/C=C\CCCC(=O)O [prostaglandin E2],"cAMP accumulation in response to agonist, 7q36.3 duplication carriers compared to controls",,no group difference
same,"cAMP accumulation in response to agonist, 7q36.3 duplication carriers compared to controls",listed as PGE2,No difference
same,"cAMP accumulation in response to agonist, 7q36.3 duplication carriers compared to controls",listed as Prostaglandin E2,No significant differences

# Source: patent US20140171371A1, “Compositions And Methods For The Diagnosis of Schizophrenia” (The Trustees of Columbia University in the City of New York, priority 2011, published 2014)
